The source of these data is US20260325533A1, “CDK INHIBITOR COMPOUNDS” (ALEKSIA THERAPEUTICS, INC., priority 2023, published 2026).

One experiment deals with CDK2/CCNE1 (Homo sapiens, UniProt P24941). Put plainly: CDK2 homogeneous time-resolved fluorescence (HTRF) kinase assay. Format: biochemical. Conditions: CDK2/CCNE. How it is done:
(§1) A CDK homogeneous time-resolved fluorescence (HTRF) assay was used to assess the potency of the compounds described herein.
(§2) To an untreated 384-well microtiter plate (ProxiPlate) was added 100 nL 100×test compound in DMSO and 5 μL 2×CDK enzyme in assay buffer (50 mM HEPES, 1 mM EGTA, 10 mM MgCl2, 0.01% Tween 20, 2 mM DTT). The plate was centrifuged at 800 RPM for 1 min then incubated for 20 min at 23 °C. 2.5 μL per well of 4×ATP and 2.5 μL 4×ULight™-eIF4E-binding protein 1 (Thr37/46) Peptide substrate were added to all wells. After addition, the plates were centrifuged at 800 RPM for 1 min. The plates were incubated at 23 °C for 60 min. 5 μL per well 4×EDTA solution were added to each well to stop the reaction. 5 μL 4×LANCE Ultra Europium-anti-phospho-eIF4E-binding protein 1 (Thr37/46) antibody were added to each well and the plate was centrifuged for 1 min at 800 RPM. The plate was incubated for 60 min at 23 °C. Fluorescence was read at 340 nm excitation and 665 nm emission on an En Vision 2105 fluorescence reader. The final concentrations of reagents in the activity assay were 3 nM CDK2/CCNE1, 1 mM ATP, 50 nM ULight™-eIF4E-binding protein 1 (Thr37/46) Peptide substrate, 1% DMSO, 10 mM EDTA, and 2 nM LANCE Ultra Europium-anti-phospho-eIF4E-binding protein 1 (Thr37/46).
(§3) Dose-response titrations were conducted by using an 11-point, half-logarithmic serial dilution scheme typically starting at 10 μM. Signals were reported as fluorescence units at 665 nm or the ratio of fluorescence units at 665 nm/fluorescence units at 615 nm. Signals are referred to below as “Lance signals”.
(§4) Using this assay, the IC50 values of example compounds were determined. Table 3 illustrates the IC50 for various Example compounds of Formula IA. Table 4 illustrates the IC50 for various other Example compounds of Formula I. ND=not determined.
For orientation: Time-resolved FRET reads energy transfer from a long-lived donor to a nearby acceptor.

A further experiment addresses CDK1/CCNB1 (Homo sapiens, UniProt P06493). Nature of the experiment: CDK1 homogeneous time-resolved fluorescence (HTRF) kinase assay. Conditions: CDK1/CCNB; >250 nM marked x; read-out: CDK1/CCNB IC50 >250 nM. Format: biochemical. As for the experimental part:
as §1
as §2, with “were 0.5” for “were 3”, “nM CDK1/CCNB1,” for “nM CDK2/CCNE1,”
as §3, §4

Where [1] appears, read: >250 nM marked x, read-out: CDK2/CCNE IC50 >250 nM.
[2] abbreviates: 25-250 nM marked x, read-out: CDK2/CCNE IC50 25-250 nM.

Where two headings read alike, the source gives them in different places.

Chain of CDK1/CCNB1 (P06493 whole entry): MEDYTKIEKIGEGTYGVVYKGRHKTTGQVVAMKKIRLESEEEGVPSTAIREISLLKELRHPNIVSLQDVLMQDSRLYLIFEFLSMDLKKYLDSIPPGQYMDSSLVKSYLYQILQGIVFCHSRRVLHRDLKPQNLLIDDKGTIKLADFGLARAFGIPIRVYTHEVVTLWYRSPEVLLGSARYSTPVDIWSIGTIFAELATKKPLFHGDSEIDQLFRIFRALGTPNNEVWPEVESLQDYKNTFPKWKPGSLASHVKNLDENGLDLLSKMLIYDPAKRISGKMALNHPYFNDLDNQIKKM
Chain of CDK1/CCNB1 (P14635 whole entry partner): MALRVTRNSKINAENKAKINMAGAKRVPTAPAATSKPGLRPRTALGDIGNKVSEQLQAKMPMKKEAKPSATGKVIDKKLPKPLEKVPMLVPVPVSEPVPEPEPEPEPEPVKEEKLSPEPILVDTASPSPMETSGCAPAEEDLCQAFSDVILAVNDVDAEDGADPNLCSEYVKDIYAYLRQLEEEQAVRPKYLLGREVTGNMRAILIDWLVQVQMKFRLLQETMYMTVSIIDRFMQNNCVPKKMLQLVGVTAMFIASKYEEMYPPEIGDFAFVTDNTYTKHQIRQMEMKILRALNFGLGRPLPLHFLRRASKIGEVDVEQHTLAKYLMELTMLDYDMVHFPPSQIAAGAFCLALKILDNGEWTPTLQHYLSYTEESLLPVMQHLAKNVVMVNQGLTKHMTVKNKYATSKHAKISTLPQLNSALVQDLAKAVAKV

For the compound `CS(=O)(=O)N1CCC(Nc2cc3c(N4CCS(=O)(=O)CC4)nccc3cn2)CC1` [Ex 59, 4-(7-((1-(methylsulfonyl)piperidin-4-yl)amino)-2,6-naphthyridin-1-yl)thiomorpholine 1,1-dioxide], the IC50 at CDK2/CCNE1 (setting [1]) and on CDK1/CCNB1 was > 250 nM in each case.
Take `CS(=O)(=O)N1CCC(Nc2cc3c(N4CCN(CCO)CC4)nccc3cn2)CC1` [Ex 60, 2-(4-(7-((1-(methylsulfonyl)piperidin-4-yl)amino)-2,6-naphthyridin-1-yl)piperazin-1-yl)ethan-1-ol]: the IC50 at CDK2/CCNE1 (setting [2]) is 25 to 250 nM; on CDK1/CCNB1, > 250 nM.
For `CS(=O)(=O)N1CCC(Nc2cc3c(-c4ccc(C(F)(F)F)nc4)nccc3cn2)CC1` [Ex 62, N-(1-(methylsulfonyl)piperidin-4-yl)-5-(6-(trifluoromethyl)pyridin-3-yl)-2,6-naphthyridin-3-amine], the IC50 at CDK2/CCNE1 (setting [2]) is 25 to 250 nM; on CDK1/CCNB1 it was > 250 nM.
Take `CS(=O)(=O)N1CCC(Nc2cc3c(-c4cnc(N)nc4)nccc3cn2)CC1` [Ex 66, 5-(2-aminopyrimidin-5-yl)-N-(1-(methylsulfonyl)piperidin-4-yl)-2,6-naphthyridin-3-amine]: the IC50 on CDK2/CCNE1 (setting [1]) and at CDK1/CCNB1 was > 250 nM throughout.
For the compound `CS(=O)(=O)N1CCC(Nc2cc3c(-c4cccnc4)nccc3cn2)CC1` [Ex 67, N-(1-(methylsulfonyl)piperidin-4-yl)-5-(pyridin-3-yl)-2,6-naphthyridin-3-amine], the results for the IC50 at CDK2/CCNE1 (setting [2]) and at CDK1/CCNB1 were 25 to 250 nM and > 250 nM, respectively.
As for `CS(=O)(=O)N1CCC(Nc2cc3c(/C(C#N)=C/O)nccc3cn2)CC1` [Ex 80, (Z)-3-hydroxy-2-(7-((1-(methylsulfonyl)piperidin-4-yl)amino)-2,6-naphthyridin-1-yl)acrylonitrile], the IC50 on CDK2/CCNE1 (setting [2]) was 25 to 250 nM; at CDK1/CCNB1, > 250 nM.
The corresponding values for `CS(=O)(=O)N1CCC(Nc2cc3c(-c4ccncc4)nccc3cn2)CC1` [Ex 83, N-(1-(methylsulfonyl)piperidin-4-yl)-5-(pyridin-4-yl)-2,6-naphthyridin-3-amine] are 25 to 250 nM and > 250 nM.
For the compound `CS(=O)(=O)N1CCC(Nc2cc3c(-c4ccc(CN5CCOCC5)cc4)nccc3cn2)CC1` [Ex 84, N-(1-(methylsulfonyl)piperidin-4-yl)-5-(4-(morpholinomethyl)phenyl)-2,6-naphthyridin-3-amine], the IC50 on CDK2/CCNE1 (setting [2]) is 25 to 250 nM; on CDK1/CCNB1 it was > 250 nM.
Regarding `COc1ncc(-c2nccc3cnc(NC4CCN(S(C)(=O)=O)CC4)cc23)cn1` [Ex 85, 5-(2-methoxypyrimidin-5-yl)-N-(1-(methylsulfonyl)piperidin-4-yl)-2,6-naphthyridin-3-amine], the IC50 on CDK2/CCNE1 (setting [1]) and on CDK1/CCNB1 was > 250 nM throughout.
Consider `CS(=O)(=O)N1CCC(Nc2cc3c(-c4ccc(C(=O)O)cc4)nccc3cn2)CC1` [Ex 86, 4-(7-((1-(methylsulfonyl)piperidin-4-yl)amino)-2,6-naphthyridin-1-yl)benzoic acid], for which the IC50 on CDK2/CCNE1 (setting [1]) and on CDK1/CCNB1 was > 250 nM throughout.
As for `CS(=O)(=O)N1CCC(Nc2cc3c(-c4cnc5[nH]ccc5c4)nccc3cn2)CC1` [Ex 88, N-(1-(methylsulfonyl)piperidin-4-yl)-5-(1H-pyrrolo[2,3-b]pyridin-5-yl)-2,6-naphthyridin-3-amine], the IC50 is 25 to 250 nM at CDK2/CCNE1 (setting [2]) and > 250 nM at CDK1/CCNB1.
For the compound `CS(=O)(=O)N1CCC(Nc2cc3c(C(=O)NC4CC4)nccc3cn2)CC1` [Ex 93, N-cyclopropyl-7-((1-(methylsulfonyl)piperidin-4-yl)amino)-2,6-naphthyridine-1-carboxamide], the IC50 at CDK2/CCNE1 (setting [1]) and on CDK1/CCNB1 was > 250 nM throughout.
As to `C=CS(=O)(=O)N1CCC(Nc2cc3c(N4CCC(O)CC4)nccc3cn2)CC1` [Ex 105, 1-(7-((1-(vinylsulfonyl)piperidin-4-yl)amino)-2,6-naphthyridin-1-yl)piperidin-4-ol], the IC50 was < 25 nM on CDK2/CCNE1 (<25 nM, read-out: CDK2/CCNE IC50 <25 nM) and > 250 nM on CDK1/CCNB1.
